Test results reported in paper PMC10914731, “Homo-BacPROTAC-induced degradation of ClpC1 as a strategy against drug-resistant mycobacteria” (Nature Communications, 2024).
≈ marks a conversion by molar mass, not a printed value. Where “and” joins values, the source holds several entries; their conditions need not be identical. Equal values may be shown once. Read-outs that look alike come from different tables or passages of the source.

Columns and labels:
[1] = target: ClpC1 NTD protein (M. tuberculosis) (Mycobacterium tuberculosis, UniProt P9WPC9); test: biochemical; assay type: binding; settings: for Kd: SPR
[2] = tested on: M. tuberculosis H37Rv (ATCC 27294); test: microbe, parasite or virus in culture; assay type: cell-based
Enterococcus faecium = test: MIC ESKAPES panel, Enterococcus faecium; assay type: cell-based
Protocol: (§1) Minimum inhibitory concentration (MIC) against ESKAPES panel of Gram positive and Gram negative pathogens (Enterococcus faecium, Staphylococcus aureus, Klebsiella pneumoniae, Acinetobacter baumannii, Pseudomonas aeruginosa, Enterobacter cloacae and Salmonella typhimurium [ESKAPES panel]) were determined at the FNDR by the standard broth dilution method [CLSI, M100]. […] Mueller Hinton broth (MHB) medium was used to grow ESKAPES panel strains. The individual cultures were added as 200 μL (inoculum of 3–7 × 10^5 cfu/ml) to the respective assay plates in each well to all columns, except the media control (200 μL of medium). […] The assay plates were incubated at 37 °C, and the results were noted on the 2nd day as turbidometric readout. The clear wells indicated inhibition of growth, while the turbid wells indicated uninhibited growth.

Msm 607 = test: microbe, parasite or virus in culture; assay type: cell-based
[3] = Microsomal stability, human; assay type: in vitro ADME; settings: human, microsomes, pH 7.5
In short: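 Steps: incubate compound at 1 µmol/l with liver microsomes (0.5 mg/ml) plus 1 mM NADPH in pH 7.5 Tris-HCl buffer containing MgCl2 at 37 °C; stop aliquots over time with acetonitrile; centrifuge and measure remaining compound by LC-MS/MS; fit first-order decay and convert half-life to %Qh.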

Salmonella typhimurium = test: MIC ESKAPES panel, Salmonella typhimurium; assay type: cell-based
Protocol: as §1

Mycobacterium abscessus = test: microbe, parasite or virus in culture; assay type: cell-based

ClpC1 NTD protein (M. tuberculosis), sequence (P9WPC9 1-156, looked up, natural form): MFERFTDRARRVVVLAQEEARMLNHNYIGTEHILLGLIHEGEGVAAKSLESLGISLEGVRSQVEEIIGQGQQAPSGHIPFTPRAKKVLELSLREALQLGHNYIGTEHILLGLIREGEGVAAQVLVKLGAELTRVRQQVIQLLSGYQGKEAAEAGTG

COC(c1ccccc1)C1NC(=O)C(C)NC(=O)C(CC(C)CO)N(C)C(=O)C(Cc2cn(C)c3ccccc23)NC(=O)C(Cc2cn(CCCCCn3cc(CC4NC(=O)C(CC(C)C)N(C)C(=O)C(C(C)C)NC(=O)C(C(OC)c5ccccc5)NC(=O)C(C)NC(=O)C(CC(C)CO)N(C)C(=O)C(Cc5cn(C)c6ccccc56)NC4=O)nn3)nn2)NC(=O)C(CC(C)C)N(C)C(=O)C(C(C)C)NC1=O (stereo not drawn) [Compound 12]
Kd ([1]; individual measurements (source data), listed as 12 (UdSBI-4377), read-out: KD ClpC1-NTD): 0.169 nM and 0.284 nM and 0.283 nM and 0.407 nM and 0.412 nM and 0.327 nM and 0.181 nM and 0.203 nM and 0.279 nM | Kd ([1]; read-out: ClpC1-NTD KD Mean ± SD): 0.28 ± 0.08 nM | improvement of SPR KD to ClpC1-NTD, dimer versus monomer (factor) ([1]; monomeric 10 to dimeric 12 / Homo-BacPROTACs versus monomeric compounds): 10 | MIC ([2]; M. tuberculosis H37Rv 27294, single well replicates, read-out: MIC): 0.098 µM (≈ 0.194 µg/mL) | MIC ([2]; Mycobacterium tuberculosis, M. tuberculosis H37Rv 27294, single well replicates, read-out: MIC): 0.098 µM (≈ 0.194 µg/mL) | MIC ([2]; Mycobacterium tuberculosis, M. tuberculosis H37Rv strain, read-out: MIC Mtb H37Rv Mean ± SD): 0.1 µM (≈ 0.198 µg/mL) | MIC ([2]; Mycobacterium tuberculosis, Mtb H37Rv (Supplementary Table 2), read-out: MIC Mtb): 0.1 µM (≈ 0.198 µg/mL) | MIC ([2]; Mycobacterium tuberculosis, Mtb H37Rv, mean ± SD, n = 3 well replicates, read-out: MIC): 0.1 µM (≈ 0.198 µg/mL) | MIC ([2]; Mycobacterium tuberculosis, Set 1, read-out: MIC (Mtb H37Rv) Set 1): 0.05 µM and 0.095 µg/mL | MIC ([2]; Mycobacterium tuberculosis, Set 2, read-out: MIC (Mtb H37Rv) Set 2): 0.05 µM and 0.095 µg/mL | MIC ([2]; Mycobacterium tuberculosis, Set 3, done at a different day than Set 1 and Set 2, read-out: MIC (Mtb H37Rv) Set 3): 0.05 µM and 0.095 µg/mL | MIC ([2]; Mycobacterium tuberculosis, individual example (Supplementary Table 11), read-out: MIC Mtb H37Rv): 0.05 µM and 0.1 µg/mL | MIC ([2]; Mycobacterium tuberculosis, individual measurements (source data), read-out: Mtb MIC): 0.097 µM (≈ 0.192 µg/mL) | MIC ([2]; Mycobacterium tuberculosis, mean of 3 experiments +/- SD, unit taken from the sets above in the same table, read-out: MIC data (Mtb H37Rv) (+/- SD)): 0.05 µM and 0.1 µg/mL | MIC ([2]; Mycobacterium tuberculosis, single determinations, read-out: Mtb MIC): 0.097 µM (≈ 0.192 µg/mL) | MIC ([2]; Mycobacterium tuberculosis, value of the earlier manuscript version quoted in the peer review file, read-out: inhibition of the Mtb growth (MIC)): 0.097 µM (≈ 0.192 µg/mL) | MIC ([2]; individual measurements (source data), read-out: Mtb MIC): 0.097 µM (≈ 0.192 µg/mL) | MIC (Enterococcus faecium; Enterococcus faecium, Gram positive, n = 3 well replicates): > 50 µM | MIC (Enterococcus faecium; Enterococcus faecium, Gram-Positive Bacteria, replicates 1-3): > 99 µg/mL | MIC (Enterococcus faecium; Gram-Positive Bacteria, replicates 1-3, listed as 12 (UdSBI-4377)): >50 µM | MIC (Msm 607; Mycolicibacterium smegmatis, 607, read-out: MIC Msm 607): 0.9 ± 0.3 µM (≈ 1.78 µg/mL) | MIC (Msm 607; Mycolicibacterium smegmatis, 607, read-out: MIC Msm #607, individual example (Supplementary Table 11)): 0.8 µM and 1.5 µg/mL | MIC (Msm 607; Mycolicibacterium smegmatis, 607, read-out: Msm 607 MIC, single determinations): 1.56 µM (≈ 3.09 µg/mL) | MIC (Msm 607; Mycolicibacterium smegmatis, ATCC607, Set-1, read-out: MIC (Msm ATCC607) Set-1): 0.78 µM and 1.54 µg/mL | MIC (Msm 607; Mycolicibacterium smegmatis, ATCC607, Set-2, read-out: MIC (Msm ATCC607) Set-2): 1.54 µM and 3.06 µg/mL | MIC (Msm 607; Mycolicibacterium smegmatis, ATCC607, Set-3, done at a different day than Set 1 and Set 2, read-out: MIC (Msm ATCC607) Set-3): 0.78 µM and 1.54 µg/mL | MIC (Msm 607; Mycolicibacterium smegmatis, ATCC607, mean of 3 experiments ± SD, read-out: MIC including standard deviations (Msm ATCC607)): 1.03 µM and 2.04 µg/mL | Msm 607 MIC (Msm 607; single determinations, listed as 12 (UdSBI-4377)): 0.780 µM | Microsomal Stability Human [3]: < 24 %Qh | Microsomal Stability Human QH [3]: <24.4% | MIC (Salmonella typhimurium; Gram-Negative Bacteria, replicates 1-3, listed as 12 (UdSBI-4377)): >50 µM | MIC (Salmonella typhimurium; Salmonella enterica, TYPHIMURIUM, Gram negative, n = 3 well replicates): > 50 µM | MIC (Salmonella typhimurium; Salmonella enterica, TYPHIMURIUM, Gram-Negative Bacteria, replicates 1-3): > 99 µg/mL | MIC (µg/ml) Mycobacterium abscessus (Mycobacterium abscessus; Experiment 2, three replicate columns): >99.02 µg/mL | MIC (Mycobacterium abscessus; Experiment 2, three replicate columns, read-out: MIC (µM) Mycobacterium abscessus): >50 µM | MIC (Mycobacterium abscessus; Mycobacteroides abscessus, Experiment 1, read-out: MIC Mycobacterium abscessus): > 50 µM and > 99 µg/mL | MIC (Mycobacterium abscessus; Mycobacteroides abscessus, Experiment 2, three replicate columns, read-out: MIC (µM) Mycobacterium abscessus): > 50 µM | MIC (Mycobacterium abscessus; Mycobacteroides abscessus, Experiment 2, three replicate columns, read-out: MIC (µg/ml) Mycobacterium abscessus): > 99 µg/mL | MIC (Mycobacterium abscessus; Mycobacteroides abscessus, mean ± SD, read-out: MIC Mycobacterium abscessus): > 50 µM
